Reference: patent US20260048046A1, “METHOD FOR IMPROVING GROWTH PERFORMANCE IN FEEDLOT CATTLE” (Elanco US Inc., priority 2022, published 2026)

Test system: beef feedlot cattle
Test: 56-d study: abnormal health observations and removals
Format: in vivo
Description: This example describes a randomized complete block study that evaluated LUB dose (0, 1.5, 3.5, and 5.5 mg kg^−1 dry matter) during the last 56 d of the feeding period on live weight, carcass weight, and associated ratios in beef feedlot cattle. Carcass characteristics, mobility, and health were also evaluated. All cattle received monensin and tylosin throughout the study.
A randomized complete block design was used to evaluate the effects of LUB on calculated growth performance of 2,880 British and Continental European crossbred steers typical for U.S. feedlots. Bos indicus breeding was limited to less than ⅛. The study evaluated four
LUB doses: 0 (control, CON), 1.5, 3.5, and 5.5 mg·kg^−1 DM. There were 12 blocks, each block containing four replicate pens that started LUB feeding on the same date. Steers were randomized within each block of four pens with 60 steers per pen, resulting in a total of 720 steers enrolled in each treatment. LUB feeding started on Jun. 24, 2018, Jul. 1, 2018, and Jul. 15, 2018, four blocks on each date.
During the approximately 10 to 15 d acclimation phase and the entire treatment phase until cattle were loaded for slaughter, all animals were observed by trained caretakers at least once daily, but health issues were only noted by exception. All abnormalities were recorded even if considered common for feedlot cattle. Abnormal health observations were observations that the observer considered as 1) typical for beef cattle at that age, or 2) not causing undue pain or distress to the animal, and/or, 3) not impeding the animal's growth at the time the observation was made. Animals with abnormal health observations were allowed to remain in the study. Animals were allowed to receive concomitant therapies (e.g., antibiotic treatment for respiratory disease and treatment for bloat). Health observations requiring an animal to be classified as “removed” were abnormalities that the observer considered as 1) resulting in pain or distress to the animal, or 2) likely to result in further deterioration of the animal's health, and/or 3) impairing the animal's ability to access food or water at the time of the observation. Animals removed from the study during the treatment or withdrawal phase were penned separately in the research feedlot and tracked through slaughter to assure accountability of all cattle on study per food use authorization or were euthanized and necropsied. Decisions to remove an animal from treatment phase were made by the Investigator or Manager. Animals that were found dead at the time of the observation were removed from the pen as soon as practical and necropsied (if possible).
The label claim variable of cumulative NH3 gas emissions over the treatment period normalized by final BW (with d −59 BW as a covariate) for the period and HCW (g of gas kg^−1 of BW or g of gas kg^−1 HCW) was determined by utilizing NH3 gas emissions equations developed from the LUB clinical effectiveness study (FDA-FOI, 2018) and validated using animals of similar BW as described by Brown et al. (2019). The pen was the experimental unit for each outcome. Differences were deemed significant using a two-sided test at Ptrt≤0.05, however, a less stringent significance threshold of Ptrt≤0.10 was used for abnormal health observations. Fixed effect of treatment and random effects of time replicate and block within time replicate were included in the model. Discrete variables were analyzed using a generalized linear mixed model, Proc GLIMMIX SAS version 9.4 unless there were convergence problems due to sparseness of data. A binomial distribution was assumed and a logit link used in the analysis. Contrasts were constructed between the CON group and each non-CON dosage group, and differences were deemed significant at Pdose≤0.05. […]

[1] = Lubabegron 1.5 mg·kg^−1 DM, 56 d, 720 hd per treatment
[2] = Lubabegron 3.5 mg·kg^−1 DM, 56 d, 720 hd per treatment
[3] = Lubabegron 5.5 mg·kg^−1 DM, 56 d, 720 hd per treatment

CC(C)(Cc1ccc(Oc2ncccc2C#N)cc1)NC[C@H](O)COc1ccccc1-c1cccs1 [LUB, 2-{4-[2-({(2S)-2-Hydroxy-3-[2-(2-thienyl)phenoxy]propyl}amino)-2-methylpropyl]phenoxy}nicotinonitrile]
Abnormal health observations and animal removals, between-treatment differences (CON, 1.5, 3.5, 5.5 mg·kg^−1, 56 d, Ptrt>0.10): No significant (Ptrt>0.10) between-treatment differences
Bloat (gastrointestinal), rate [1]: 0.1%
Bloat (gastrointestinal), total number [1]: 1
Dead (animals found dead), rate [1]: 0.3%
Dead (animals found dead), total number [1]: 2
Lameness (musculoskeletal), rate [1]: 1.3%
Lameness (musculoskeletal), total number [1]: 9
Removals (found dead and removed during treatment phase), rate [1]: 2.5%
Removals (found dead and removed during treatment phase), total number [1]: 18
Bloat (gastrointestinal), rate [2]: 0.6%
Bloat (gastrointestinal), total number [2]: 4
Dead (animals found dead), rate [2]: 0.7%
Dead (animals found dead), total number [2]: 5
Lameness (musculoskeletal), rate [2]: 0.4%
Lameness (musculoskeletal), total number [2]: 3
Removals (found dead and removed during treatment phase), rate [2]: 1.5%
Removals (found dead and removed during treatment phase), total number [2]: 11
Bloat (gastrointestinal), rate [3]: 0.3%
Bloat (gastrointestinal), total number [3]: 2
Lameness (musculoskeletal), rate [3]: 1.0%
Lameness (musculoskeletal), total number [3]: 7
Pneumonia (respiratory), rate [3]: 0.3%
Pneumonia (respiratory), total number [3]: 2
Removals (found dead and removed during treatment phase), rate [3]: 1.8%
Removals (found dead and removed during treatment phase), total number [3]: 13
